Series [1] concerns the target PDGFRα (Homo sapiens (Human), UniProt P16234). As to the kind of experiment: PDGFRα kinase enzyme assay (Promega PDGFRα Kinase Enzyme System, ADP-Glo). The series is classed as biochemical. The conditions noted are these: 11-point dose response, 10,000 nM to 0.169 nM; 150 uM ATP; BLQ = below limit of quantitation; read-out: IC50 Values on PDGFRα Kinase Inhibition, IC50. The method, boiled down:
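Read-out was ADP-Glo: remaining ATP depleted, ADP converted to luminescence and compared with a standard curve.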
In general terms: ADP-Glo turns the ADP formed in a reaction into a luminescent signal.

For series [2], the system named is Oligodendrocyte progenitor cells (OPCs). Kind of series: In vitro OPC differentiation assay, GPR17 expression (immunocytochemistry). The conditions noted are these: 3 μM (10× concentration, final 0.3 μM); 72 hours; fold change over vehicle.

Molecules are shown by their SMILES. pIC50: −log10 of the molar value.

Chain of PDGFRα (P16234 24-1089): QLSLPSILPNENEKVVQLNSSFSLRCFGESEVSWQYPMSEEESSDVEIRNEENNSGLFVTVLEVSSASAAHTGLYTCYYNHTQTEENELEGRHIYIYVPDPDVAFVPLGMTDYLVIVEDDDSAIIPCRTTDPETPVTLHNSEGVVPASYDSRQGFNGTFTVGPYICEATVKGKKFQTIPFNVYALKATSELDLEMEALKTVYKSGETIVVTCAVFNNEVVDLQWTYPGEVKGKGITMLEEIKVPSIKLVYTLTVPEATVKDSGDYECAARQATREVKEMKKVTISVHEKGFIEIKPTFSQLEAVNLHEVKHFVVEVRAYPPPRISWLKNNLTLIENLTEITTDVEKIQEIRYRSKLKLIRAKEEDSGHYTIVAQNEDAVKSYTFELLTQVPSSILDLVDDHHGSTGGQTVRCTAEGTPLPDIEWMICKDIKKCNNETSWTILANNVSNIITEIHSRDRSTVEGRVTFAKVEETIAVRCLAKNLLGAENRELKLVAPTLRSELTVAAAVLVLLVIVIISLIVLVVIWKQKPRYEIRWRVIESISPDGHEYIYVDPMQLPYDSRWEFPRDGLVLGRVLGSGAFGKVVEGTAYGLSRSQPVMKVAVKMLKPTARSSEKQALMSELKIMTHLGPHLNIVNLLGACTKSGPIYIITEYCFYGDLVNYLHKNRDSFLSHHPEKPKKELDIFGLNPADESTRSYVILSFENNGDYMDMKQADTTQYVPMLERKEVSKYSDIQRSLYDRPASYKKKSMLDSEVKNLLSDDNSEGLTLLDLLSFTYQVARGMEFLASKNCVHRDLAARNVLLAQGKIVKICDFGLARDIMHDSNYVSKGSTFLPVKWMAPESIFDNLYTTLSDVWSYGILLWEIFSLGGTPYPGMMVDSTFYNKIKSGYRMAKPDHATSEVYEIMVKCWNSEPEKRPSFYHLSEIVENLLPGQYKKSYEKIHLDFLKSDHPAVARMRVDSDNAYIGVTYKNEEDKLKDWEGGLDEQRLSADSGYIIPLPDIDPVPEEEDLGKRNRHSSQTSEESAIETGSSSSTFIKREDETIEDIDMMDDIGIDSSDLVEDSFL

As for `Cn1cc(-c2ccc3c(N4CCN(Cc5csc(Cl)c5)CC4)cnn3c2)cn1` [Compound 200, 3-(4-((5-chlorothiophen-3-yl)methyl)piperazin-1-yl)-6-(1-methyl-1H-pyrazol-4-yl)pyrazolo[1,5-a]pyridine], in series [1], the pIC50 was 5.16. The “GPR17 Fold Induction (Over Vehicle; 3 μM)” value (“GPR17 Fold Induction” for short) in series [2] is given as 2.20.
Regarding `Cc1ccc(CN2CCN(c3cnn4cc(-c5cnn(C)c5)ccc34)CC2)o1` [Compound 201, 6-(1-methyl-1H-pyrazol-4-yl)-3-(4-((5-methylfuran-2-yl)methyl)piperazin-1-yl)pyrazolo[1,5-a]pyridine], the pIC50 in series [1] was less than 5.00. Moreover, the “GPR17 Fold Induction” value in series [2] stood at 1.30.
As to `CCCc1ccc2c(N3CCN(C(=O)OC(C)(C)C)CC3)cnn2c1` [Compound 203, tert-butyl 4-(6-propylpyrazolo[1,5-a]pyridin-3-yl)piperazine-1-carboxylate], the pIC50 in series [1] was less than 5.00. Moreover, in series [2], the “GPR17 Fold Induction” value is 1.35.
`CC(C)(C)OC(=O)N1CCN(c2cnn3cc(CCCO)ccc23)CC1` [Compound 204, tert-butyl 4-(6-(3-hydroxypropyl)pyrazolo[1,5-a]pyridin-3-yl)piperazine-1-carboxylate]: in series [1], the pIC50 was less than 5.00. For the same compound, the “GPR17 Fold Induction” value in series [2] amounted to 1.20.
On the same counts, the results for `CC(C)(C)OC(=O)N1CCN(c2cnn3cc(CCCN4CCCC4)ccc23)CC1` [Compound 205, tert-butyl-4-(6-(3-(pyrrolidin-1-yl)propyl)pyrazolo[1,5-a]pyridin-3-yl)piperazine-1-carboxylate] are less than 5.00 and 1.92.
`CC(C)(C)OC(=O)N1CCN(c2cnn3cc(-c4ccccc4)ccc23)CC1` [Compound 206, tert-butyl 4-(6-phenylpyrazolo[1,5-a]pyridin-3-yl)piperazine-1-carboxylate]: the pIC50 in series [1] was 5.27. In series [2], the “GPR17 Fold Induction” value came to 3.32.
For `CC(C)(C)OC(=O)N1CCN(c2cnn3cc(-c4ccc(F)cc4)ccc23)CC1` [Compound 207, tert-butyl 4-(6-(4-fluorophenyl)pyrazolo[1,5-a]pyridin-3-yl)piperazine-1-carboxylate], in that order: 5.32 and 2.24.
`CC(C)(C)OC(=O)N1CCN(c2cnn3cc(-c4cccc(F)c4)ccc23)CC1` [Compound 208, tert-butyl 4-(6-(3-fluorophenyl)pyrazolo[1,5-a]pyridin-3-yl)piperazine-1-carboxylate]: the pIC50 in series [1] was less than 5.00. Besides, in series [2], the “GPR17 Fold Induction” value was found to be 1.22.
`CC(C)(C)OC(=O)N1CCN(c2cnn3cc(-c4ccccc4F)ccc23)CC1` [Compound 209, tert-butyl-4-(6-(2-fluorophenyl)pyrazolo[1,5-a]pyridin-3-yl)piperazine-1-carboxylate]: the negative-log IC50 (pIC50) in series [1] is less than 5.00. Moreover, the “GPR17 Fold Induction” value in series [2] turned out to be 2.02.
As for `COc1ccc(-c2ccc3c(N4CCN(C(=O)OC(C)(C)C)CC4)cnn3c2)cc1` [Compound 210, tert-butyl 4-(6-(4-methoxyphenyl)pyrazolo[1,5-a]pyridin-3-yl)piperazine-1-carboxylate], the pIC50 in series [1] is 5.13. Further, the “GPR17 Fold Induction” value in series [2] was 4.38.
On the same counts, the results for `COc1cccc(-c2ccc3c(N4CCN(C(=O)OC(C)(C)C)CC4)cnn3c2)c1` [Compound 211, tert-butyl 4-(6-(3-methoxyphenyl)pyrazolo[1,5-a]pyridin-3-yl)piperazine-1-carboxylate] are 5.13 and 2.54.
With `COc1ccccc1-c1ccc2c(N3CCN(C(=O)OC(C)(C)C)CC3)cnn2c1` [Compound 212, tert-butyl 4-(6-(2-methoxyphenyl)pyrazolo[1,5-a]pyridin-3-yl)piperazine-1-carboxylate], the pIC50 in series [1] is 5.44. Besides, the “GPR17 Fold Induction” value in series [2] was determined as 2.51.

The pIC50 is the IC50 on a negative log10 scale, so that one unit is a factor of ten.
